{
  "source": "paper PMC8406801",
  "about": "“Naringenin Inhibits Platelet Activation and Arterial Thrombosis Through Inhibition of Phosphoinositide 3-Kinase and Cyclic Nucleotide Signaling” (Frontiers in Pharmacology, 2021)",
  "key": {"[1]": {"test_system": "Akt Ser473 phosphorylation", "test": "Ex vivo immunoblotting of phospho-Akt (Ser473) in ADP-stimulated PRP of treated rats", "parameters": "species or system rat", "details": "for p-Akt Ser473 / t-Akt (Fold to Control) / p-Akt Ser473 / t-Akt (raw data): ex vivo, Figure 8C", "method": "(§1) Male SD rats were randomly divided into 5 groups with 6 rats in each group. […] Sixty minutes after the last sample treatment, blood was drawn from the abdominal aorta of rats into the siliconized vacutainers containing 1:9 (v/v) 3.8% sodium citrate. The collected blood was centrifuged at 100 × g for 10 min at room temperature to obtain PRP. […] The platelet counts of PRP were adjusted to 4×10^8 cells/mL using PPP. PRP was incubated for 5 min at 37°C and then stimulated by ADP (5 μM). The maximum platelet aggregation rate was determined as mentioned above.\n(§2) For in vitro platelet aggregation, aliquots of washed platelets were preincubated with vehicle or various concentrations of naringenin for 5 min and stimulated with ADP (10 μmol/L) under stirring at 37°C for 5 min. For ex vivo platelet aggregation, PRP was incubated at 37°C for 5 min and stimulated with ADP (5 μmol/L) under stirring at 37 °C. The platelet aggregation was terminated by adding ethylenediaminetetraacetic acid (EDTA; 10 mM). Total protein was prepared using RIPA lysis buffer and protein content was determined by bicinchoninic acid (BCA) protein assay kit. Equal amounts of platelet proteins (30 μg) were separated on 10% SDS polyacrylamide gel electrophoresis (SDS-PAGE) and then transferred to poly vinylidene difluoride (PVDF) membranes and subjected to western blot. Blots were blocked with TBS-Tween 20 containing 5% BSA and probed with primary antibodies diluted in blocking solution at 4°C overnight followed by incubation with the corresponding HRP secondary antibodies. The protein bands were visualized using enhanced chemiluminescence (ECL).\n(§3) Blood was collected and PRP was obtained after the last treatment. Platelet aggregation was induced by ADP (5 μmol/L) (A). Data are expressed as means ± SD (n = 6). After ADP stimulation, platelet proteins were then extracted and analyzed by immunoblotting using PI3Kp110β antibody (B) and phospho-specific antibodies such as Akt^Ser473 (C), Akt^Thr308 (D) and ERK1/2^Thr202/Tyr204 (E). Total level of GAPDH was measured on each sample as a loading control. The blots shown are representative of three separate experiments. The relative protein expression levels were quantified by ImageJ 1.47v software. The level of relative protein expression obtained with vehicle control was taken as 1. R represents the level of relative protein expression in resting platelets. Data are expressed as means ± SD (n = 3). *p < 0.05, **p < 0.01, ***p < 0.001 compared with the vehicle control group (Con).\n(§4) To further investigate the antiplatelet mechanisms of naringenin ex vivo, several signaling molecules such as PI3Kp110β, Akt and ERK were detected. After oral administration of naringenin (200, 400, and 800 mg/kg) to rats for 7 days, rat PRP was prepared and stimulated by ADP (5 μmol/L), and platelets were lysed to determine protein phosphorylation levels using western blot."}, "[2]": {"test_system": "intracellular calcium in washed platelets", "test": "Calcium mobilization in ADP-induced platelets (Fluo 3-AM, flow cytometry)", "format": "cell-based, rat", "details": "for Calcium mobilisation (%): ADP 10 μM, single replicates", "method": "Calcium mobilization in ADP-induced platelets was measured using flow cytometry. Washed platelets were incubated with Fluo 3-AM (5 μM) at 37°C for 30 min and washed. The Fluo 3-loaded platelets were preincubated with vehicle or different concentrations of naringenin at 37°C for 5 min in the presence of 1 mM CaCl2 and then stimulated with ADP (10 μM) for 5 min. The fluorescence intensity was analyzed using an Accuri C6 flow cytometer."}, "PI3Kp110β": {"test_system": "PI3Kp110β", "test": "Ex vivo immunoblotting of PI3Kp110β in ADP-stimulated PRP of treated rats", "parameters": "species or system rat", "details": "for PI3Kp110β / GAPDH (Fold to Control) / PI3Kp110β / GAPDH (raw data): ex vivo, Figure 8B", "method": "as §1, §2, §3, §4"}, "ERK1/2 phosphorylation": {"test_system": "ERK1/2 phosphorylation", "test": "Immunoblotting of phospho-ERK1/2 (Thr202/Tyr204) in ADP-stimulated washed platelets", "format": "cell-based, rat", "details": "ADP 10 μmol/L, single replicates; for p-ERK1/2 / t-ERK: raw data", "method": "as §2\nFIGURE 4 Naringenin inhibits PI3K-mediated signaling in ADP-induced platelets. Washed rat platelets were preincubated without or with naringenin at 37°C for 5 min, and then stimulated with ADP (10 μmol/L) under stirring for 5 min. Platelet proteins were then extracted and analyzed by immunoblotting using PI3Kp110β antibody (A) and phospho-specific antibodies such as Akt^Ser473 (B), Akt^Thr308 (C), ERK1/2^Thr202/Tyr204 (D) and GSK3β^Ser9 (E). Total level of GAPDH was measured on each sample as a loading control. The blots shown are representative of three separate experiments. The relative protein expression levels were quantified by ImageJ 1.47v software. The level of relative protein expression obtained with vehicle control (0 μM) was taken as 1. R represents the level of relative protein expression in resting platelets. Data are expressed as means ± SD (n = 3). *p < 0.05, **p < 0.01, ***p < 0.001 compared with the vehicle control group."}, "[3]": {"details": "rats, oral 200, 400, and 800 mg/kg for 7 days, ADP 5 μmol/L"}},
  "note": "Values joined by “and” are separate entries in the source; they are usually repeats but may differ in a detail not shown here. Identical values can stand only once.",
  "data": [
    {"smiles": "O=C1C[C@@H](c2ccc(O)cc2)Oc2cc(O)cc(O)c21", "note": "[Naringenin]", "values": [
      {"measurement": "p-Akt Ser473 / t-Akt (Fold to Control)", "setting": "[1]; naringenin 200mg/kg", "value": "0.3581 and 0.2265 and 0.3338"},
      {"measurement": "p-Akt Ser473 / t-Akt (raw data)", "setting": "[1]; naringenin 200mg/kg", "value": "0.3980 and 0.2517 and 0.3710"},
      {"measurement": "p-Akt Ser473 / t-Akt (Fold to Control)", "setting": "[1]; naringenin 400mg/kg", "value": "0.1353 and 0.0873 and 0.1300"},
      {"measurement": "p-Akt Ser473 / t-Akt (raw data)", "setting": "[1]; naringenin 400mg/kg", "value": "0.1504 and 0.0970 and 0.1445"},
      {"measurement": "p-Akt Ser473 / t-Akt (Fold to Control)", "setting": "[1]; naringenin 800mg/kg", "value": "0.1415 and 0.0868 and 0.1240"},
      {"measurement": "p-Akt Ser473 / t-Akt (raw data)", "setting": "[1]; naringenin 800mg/kg", "value": "0.1573 and 0.0965 and 0.1378"},
      {"measurement": "phosphorylation of Akt at Ser473 in rat PRP ex vivo", "setting": "[1]; [3]", "value": "significantly suppressed"},
      {"measurement": "mobilization of intracellular calcium induced by ADP", "setting": "[2]; 400 and 800 μM", "value": "significantly prevented"},
      {"measurement": "Calcium mobilisation (%)", "setting": "[2]; 200 μM", "value": "46.06% and 50.52% and 43.09%"},
      {"measurement": "Calcium mobilisation (%)", "setting": "[2]; 400 μM", "value": "35.32% and 30.53% and 43.33%"},
      {"measurement": "Calcium mobilisation (%)", "setting": "[2]; 800 μM", "value": "34.54% and 21.04% and 26.06%"},
      {"measurement": "PI3Kp110β / GAPDH (Fold to Control)", "setting": "PI3Kp110β; naringenin 200mg/kg", "value": "0.9111 and 0.9256 and 1.0697"},
      {"measurement": "PI3Kp110β / GAPDH (raw data)", "setting": "PI3Kp110β; naringenin 200mg/kg", "value": "0.4465 and 0.4536 and 0.5241"},
      {"measurement": "PI3Kp110β / GAPDH (Fold to Control)", "setting": "PI3Kp110β; naringenin 400mg/kg", "value": "0.7818 and 0.8725 and 1.0518"},
      {"measurement": "PI3Kp110β / GAPDH (raw data)", "setting": "PI3Kp110β; naringenin 400mg/kg", "value": "0.3831 and 0.4275 and 0.5154"},
      {"measurement": "PI3Kp110β / GAPDH (Fold to Control)", "setting": "PI3Kp110β; naringenin 800mg/kg", "value": "0.6930 and 0.8263 and 0.7645"},
      {"measurement": "PI3Kp110β / GAPDH (raw data)", "setting": "PI3Kp110β; naringenin 800mg/kg", "value": "0.3396 and 0.4049 and 0.3746"},
      {"measurement": "expression of PI3Kp110β in rat PRP ex vivo", "setting": "PI3Kp110β; [3]", "value": "only modest changes"},
      {"measurement": "p-ERK1/2 / t-ERK", "setting": "ERK1/2 phosphorylation; 100 μM", "value": "0.3358 and 0.4551 and 0.3494"},
      {"measurement": "p-ERK1/2 / t-ERK (Fold to ADP only)", "setting": "ERK1/2 phosphorylation; 100 μM", "value": "0.4798 Fold to ADP only and 0.6502 Fold to ADP only and 0.4991 Fold to ADP only"},
      {"measurement": "p-ERK1/2 / t-ERK", "setting": "ERK1/2 phosphorylation; 200 μM", "value": "0.2390 and 0.3446 and 0.2653"},
      {"measurement": "p-ERK1/2 / t-ERK (Fold to ADP only)", "setting": "ERK1/2 phosphorylation; 200 μM", "value": "0.3414 Fold to ADP only and 0.4923 Fold to ADP only and 0.3790 Fold to ADP only"},
      {"measurement": "p-ERK1/2 / t-ERK", "setting": "ERK1/2 phosphorylation; 400 μM", "value": "0.0291 and 0.2751 and 0.1193"},
      {"measurement": "p-ERK1/2 / t-ERK (Fold to ADP only)", "setting": "ERK1/2 phosphorylation; 400 μM", "value": "0.0416 Fold to ADP only and 0.3930 Fold to ADP only and 0.1704 Fold to ADP only"},
      {"measurement": "p-ERK1/2 / t-ERK", "setting": "ERK1/2 phosphorylation; 800 μM", "value": "0.0106 and 0.1491 and 0.1406"},
      {"measurement": "p-ERK1/2 / t-ERK (Fold to ADP only)", "setting": "ERK1/2 phosphorylation; 800 μM", "value": "0.0152 Fold to ADP only and 0.2129 Fold to ADP only and 0.2008 Fold to ADP only"}
    ]}
  ]
}
